According to US9896659B2, “Methods, kits, and compositions for stem cell self-renewal” (STOWERS INSTITUTE FOR MEDICAL RESEARCH, priority 2011, dated 2018):

Key:
[1] = system: lethally irradiated (10 Gy) CD45.1^+ recipient mice; experiment: Transplantation of cultured sorted LSK Flk2^− cells into lethally irradiated recipients, donor engraftment; assay type: in vivo, mouse; conditions: 28-day cultures, 1000 re-sorted LSK Flk2^− cells + 2×10^5 competitor cells; peripheral blood 4 weeks post-transplant
[2] = system: lethally irradiated recipients; experiment: Serial transplantation of cultured MNCs without rescue/competitor cells; assay type: in vivo, mouse
Description: FIGS. 27A-C show ex vivo expansion of normal, long-term repopulating HSC. MNCs containing a known quantity of LSK Flk2^− cells were cultured for 14 days with and without CHIR99021. The cultured progeny of MNCs containing a pre-culture dosage of 0.1, 0.3 or 1.0 LSK Flk2^− cells were transplanted into lethally irradiated recipients along with 1×10^5 rescue/competitor cells (n=10 for each of 6 groups). Peripheral blood was analyzed at 16 weeks post-transplant and competitive repopulating unit (CRU) frequency was determined using L-Calc software (Stem Cell Technologies, Inc.) based on Poisson statistics (Zhang, C. C. & Lodish, H. F. Murine hematopoietic stem cells change their surface phenotype during ex vivo expansion. Blood, Vol. 105, pages 4314-4320 (2005); Miller, C. L. & Eaves, C. J. Expansion in vitro of adult murine hematopoietic stem cells with transplantable lympho-myeloid reconstituting ability. Proceedings of the National Academy of Sciences of the United States of America, Vol. 94, pages 13648-13653 (1997)). […] Fresh MNCs containing 5 or 500 LSK Flk2^− cells, or the progeny of MNCs containing 5 LSK Flk2^− cells cultured for 14 days with and without CHIR99021, were transplanted into lethally irradiated recipients without rescue/competitor cells. At 16-17 weeks post-transplant, bone marrow isolated from 1° recipients was transplanted into 2° recipients and, at 16-17 weeks post-secondary transplant, from 2° into 3° recipients at a dosage of 1×10^6 cells per mouse. Peripheral blood was analyzed for percent donor repopulation at 16 weeks post-1°, 2°, and 3° transplant (upper panels) and percent mature donor-derived B, T and myeloid cells (lower panels).
For competitive repopulation assays, 1×10^5 bone marrow cells congenic with the host (CD45.1^+) were included per mouse. 100 μl of cultured cells or cells freshly isolated and quantified in the same manner were transplanted into lethally irradiated (10 Grays, single dose) Protein tyrosine phosphatase, receptor type, C (Ptprc or CD45.1) recipient mice through the tail vein using an insulin syringe (29 gauge). Mice were placed on Batril® water (Bayer Healthcare, LLC, Shawnee Mission, Kans.) 3 days prior to irradiation which continued for 2 weeks post-irradiation. Repopulation was measured every 4 weeks post-transplant by collection of peripheral blood, red blood cell lysis and staining of CD45.1 (recipient) vs. CD45.2 (donor) engraftment. […] Multi-lineage reconstitution was determined by CD3, B220 (for T and B lymphoid, respectively) and Gr1, Mac-1 (for myeloid) gating on donor (CD45.2^+) cells. […] Bone marrow cells were counted and transplanted as above at a dosage of 1×10^6 per mouse. […]

[3] = system: LSK Flk2^− cells; experiment: Ex vivo culture of sorted LSK Flk2^− cells with GSK-3β and PTEN inhibitors, expansion by FACS; assay type: cell-based, mouse
Description: LSK or LSK Flk2^− cells were sorted into 96-well U-bottom tissue culture plates at 100 cells/well with 200 μl media/well. Cells were incubated at 37° C., 5% O2, 5% CO2 (balance N2) for the indicated number of days. One-half total volume of media (see Table 1, below for the base media) was carefully pipetted from the top and replaced with fresh media every other day.
One hundred LSK Flk2^− cells were sorted from wild-type (C57Bl/6) mice and cultured in (1) media, (2) media+1 μM CHIR99021 (a GSK-3β inhibitor, a gift from Dr. Sheng Ding), (3) media+200 nM Dipotassium Bis-peroxo(picolinato)oxovanadate (BpV(pic), a PTEN inhibitor, available from Calbiochem, Cat. No. 203705), (4) media+1 μM CHIR99021+200 nM BpV(pic), (5) media+200 nM Shikonin (also a PTEN inhibitor, available from Calbiochem, Cat. No. 565850), and (6) media+200 nM Shikonin+1 μM CHIR99021. (FIGS. 3B-C). Cells were cultured as described above. Cells were examined at 17 days of culture (FIG. 3B, original magnification 100×) and 23 days (FIG. 3C, original magnification 40×).
LSK Flk2^− cells at 28 days culture in the indicated media conditions were examined (FIG. 3D, original magnification 200×).
FACS analysis of 28 day LSK Flk2^− cells cultured in media+BpV(pic)+CHIR99021 (FIG. 3E) was performed. Cells were pre-gated on live, lineage negative cells.
Fold expansion of LSK Flk2^− cells after 28 days culture in (1) media, (2) media+BpV(pic), (3) media+CHIR99021, and (4) media+CHIR99021+BpV(pic) were analyzed.
Cells cultured for 9 days in (1) media, (2) media+BpV(pic) (200 nM), (3) media+CHIR99021 (100 nM), and (4) media+CHIR99021 (100 nM)+BpV(pic) (200 nM) were re-sorted for LSK Flk2^− cells, and fold expansion of LSK Flk2^− cells after 9 days culture in the indicated conditions was determined (FIG. 3I).
FACS analysis was performed on 9 day LSK Flk2^− cells cultured in media+BpV(pic) (200 nM)+CHIR99021 (100 nM) (FIG. 3J). Cells were pre-gated on live, lineage negative cells.

SMILES: Cc1c[nH]c(-c2cnc(NCCNc3ccc(C#N)cn3)nc2-c2ccc(Cl)cc2Cl)n1 [CHIR99021]
- Mice showing >1% engraftment [1]: 4/8
- Dose of fresh, unexpanded cells giving equivalent long-term repopulation ([2]; 16 weeks post-secondary transplantation, 5 versus 500 putative HSCs): 100 fold
- Repopulation of tertiary recipients ([2]; 16 weeks post-tertiary transplant, versus 100× uncultured cells): equivalent levels of repopulation with no statistical difference between the two groups
- Survival of tertiary recipients ([2]; Kaplan-Meier, FIG. 27C): survival rates similar to tertiary recipients of 100× uncultured cells
- Donor reconstitution at 16 weeks post-secondary transplant ([2]; secondary lethally-irradiated recipients, 1×10^6 bone marrow cells): 90.6±4.8%
- Expansion of LSK cells compared to control (photographs) ([3]; 17 and 23 days culture, 1 μM CHIR99021, 200 nM BpV(pic)): greater expansion of LSK cells
- Expansion of LSK Flk2^− cells compared to media without inhibitor ([3]; 28 days culture): significant expansion
